Laboratory results as given in paper PMC11467779, “New anti-ovarian cancer quinolone derivatives acting by modulating microRNA processing machinery” (RSC Medicinal Chemistry, 2024).
“Also recorded” adds a separate entry of the source.

What was measured:
[1] = Cytotoxicity against non-tumor Wi-38 cells (CC50, cell count); type: cell-based; conditions: human, Wi-38 cells (non-tumor), 50% cytotoxicity concentration, 72 hours of treatment
Experimental: (§1) SKOV-3, A2780 and A2780 CIS were cultured and maintained, as previously described,[50] at 37 °C in RPMI 1640 medium (Euroclone) supplemented with 10% fetal bovine serum (FBS; Euroclone), L-glutamine and penicillin/streptomycin (SIGMA-ALDRICH). OVCA433, HEK-293T, HeLa, HCCLM3, SK-Hep-1, MCF-7, A549 and HCT-116 cells were maintained in DMEM medium (Euroclone) containing 10% FBS (Euroclone), L-glutamine and penicillin/streptomycin (SIGMA-ALDRICH). Wi-38 cells were cultured in DMEM medium (Euroclone) supplemented with 10% FBS (Euroclone), L-glutamine and penicillin/streptomycin (SIGMA-ALDRICH), and 1% non-essential amino acids (NEAA; Euroclone). The cultures were maintained in a constant temperature incubator at 37 °C with 5% CO2. […] Once cell adhesion had been promoted, the compounds were added to the culture medium. After 72 hours of treatment, the cells were counted, and the data analyzed by linear regression. Each experiment was carried out three times in triplicate and three separate cell counts were made for each sample. […] Afterwards, the concentration range was narrowed to the relative value obtained in the first evaluation in order to obtain an accurate value.

A2780 = experiment: Antiproliferative effect against A2780 (GI50); type: cell-based; conditions: Homo sapiens, 72 hours of treatment, cell count
Experimental: as §1

hTopI = target: T1, hTopI (Homo sapiens, UniProt P11387); experiment: Detection of hTOP1 cleavage complexes (cleavage assay); type: cell-based; conditions: 100 μM
T1 construct: endogenous in cells
T1 sequence (P11387 whole entry): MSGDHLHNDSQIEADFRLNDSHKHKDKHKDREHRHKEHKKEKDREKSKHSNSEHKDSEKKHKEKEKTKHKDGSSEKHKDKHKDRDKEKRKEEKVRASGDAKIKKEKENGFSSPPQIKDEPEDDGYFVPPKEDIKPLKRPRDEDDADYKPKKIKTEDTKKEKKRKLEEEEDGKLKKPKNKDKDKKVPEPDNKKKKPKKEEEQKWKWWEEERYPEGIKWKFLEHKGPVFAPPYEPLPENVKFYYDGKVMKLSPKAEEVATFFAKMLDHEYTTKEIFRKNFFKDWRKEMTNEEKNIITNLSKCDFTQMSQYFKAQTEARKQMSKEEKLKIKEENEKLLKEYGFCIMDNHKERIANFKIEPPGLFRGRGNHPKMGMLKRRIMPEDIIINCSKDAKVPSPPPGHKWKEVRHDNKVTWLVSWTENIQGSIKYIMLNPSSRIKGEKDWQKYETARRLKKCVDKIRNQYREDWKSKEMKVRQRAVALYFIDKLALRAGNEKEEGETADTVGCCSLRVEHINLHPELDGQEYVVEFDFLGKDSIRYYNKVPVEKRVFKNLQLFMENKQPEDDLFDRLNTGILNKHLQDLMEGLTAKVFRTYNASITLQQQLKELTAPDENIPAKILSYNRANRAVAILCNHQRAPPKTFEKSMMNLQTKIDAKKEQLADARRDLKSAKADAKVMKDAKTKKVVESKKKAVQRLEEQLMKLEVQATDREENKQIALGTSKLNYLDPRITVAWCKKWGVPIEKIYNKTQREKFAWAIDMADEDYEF
Experimental: After compound treatments, 1 × 10^6 human cells in 35 mm dish per sample were washed with 1× phosphate-buffered saline (PBS) and lysed with 600 μL of DNAzol (Invitrogen), followed by precipitation with 300 μL of 200 proof ethanol. The nucleic acids were collected, washed with 75% ethanol, resuspended in 200 μL of TE buffer, and then heated at 65 °C for 15 min, followed by shearing with sonication (40% output for 10 s pulse and 10 s rest for four times). The samples were centrifuged at 15 000 rpm for 5 min at 4 °C, and the supernatant were collected. 1 μL of each sample was removed for spectrophotometric measurement of absorbance at 260 nm to quantitate DNA content (NanoDrop). 2 μg of each sample was subjected to slot-blot for immunoblotting using anti-hTOP1 antibody (BD Pharmingen, 556597) and anti-hTOP2α antibody (Santa Cruz biotechnology, 365916).[51]

WT HCCLM3 cells = experiment: Antiproliferative effect on WT HCCLM3 cells (CCK-8); type: cell-based, human; conditions: 30 μM, 48 hours
Experimental: HCCLM3 and SK-Hep-1 cells were seeded into 96-well plates at a density of 10 000 cells per well and allowed to adhere overnight. Subsequently, the cells were treated with the following substances: 0.1% DMSO as the negative control, various concentrations of the test compounds, and 125 μM enoxacin as the positive control. After 48 h of incubation, the original culture medium was removed, and the cells were washed twice with PBS. Then, 100 μL of DMEM culture medium containing 10% CCK-8 (Bimake, USA) was added to each well. The plates were incubated for 30 minutes at 37 °C. To determine the […], measurements were taken at a wavelength of 450 nm using a Varioskan from Thermo Fisher Scientific.

MCF-7 (breast cancer) = experiment: Proliferation of MCF-7 cells (trypan blue count); type: cell-based, human; conditions: 30 μM, 72 hours
Experimental: (§2) A2780 and SKOV-3 cells were treated with 50 μM of 33 for 72 h before RNA and protein extraction and expression analyses. A2780 and A2780 CIS were treated with 33 (30 μM) and/or cisplatin (1 μM, Sigma-Aldrich) for 48 hours while MCF-7, A549 and HCT-116 were treated with 33 (30 μM) for 72 hours. Total cell number and viability have been assessed using Trypan Blue Solution (Thermo Fisher Scientific) and Countess™ 3 Automated Cell Counter (Thermo Fisher Scientific).

A549 (lung carcinoma) = experiment: Proliferation of A549 cells (trypan blue count); type: cell-based, human; conditions: 30 μM, 72 hours
Experimental: as §2

SKOV-3 cells = experiment: SKOV-3 cell number, cell death and apoptosis markers (trypan blue, Western blot); type: cell-based, human; conditions: 30 μM, 72 hours
[2] = test system: cisplatin-resistant A2780 cells (A2780 CIS); experiment: Viable cells of cisplatin-resistant A2780 (A2780 CIS) treated with 33, cisplatin or both; type: cell-based, human; conditions: 48 hours
Experimental: as §2

Question: Which CC50 at 72 h [1] does the source give for `O=C(O)c1cn(C2CC2)c2cc(N3CCc4ccccc4C3)c(F)cc2c1=O` [Compound 33, 1-Cyclopropyl-7-(3,4-dihydroisoquinolin-2(1H)-yl)-6-fluoro-4-oxo-1,4-dihydroquinoline-3-carboxylic acid] here?
Answer: 143 ± 42.7 µM

Question: And the GI50 (A2780)?
Answer: 18.1 ± 8.25 µM

Question: And the “trapping/inhibition of hTopI (cleavage assay)” value (hTopI)?
Answer: no inhibition or trapping activity

Question: What about the “reduction of viability of WT HCCLM3 cells” value (WT HCCLM3 cells) of the same compound?
Answer: about 50%

Question: And the “effect on MCF-7 cell proliferation” value (MCF-7 (breast cancer))?
Answer: significant inhibitory effect on cell proliferation

Question: What about the “effect on A549 cell proliferation” value (A549 (lung carcinoma)) of the same compound?
Answer: significant inhibitory effect on cell proliferation

Question: What about the “c-PARP and Bcl-XL in SKOV-3 cells” value (SKOV-3 cells; Western blot) of the same compound?
Answer: No changes

Question: And the “total number of SKOV-3 cells” value (SKOV-3 cells; trypan blue)?
Answer: greatly reduced

Question: And the “sensitivity of A2780 CIS and A2780 to 33 alone” value ([2]; 30 μM)?
Answer: equal sensitivity

Question: And the “effect of 33 in combination with cisplatin on A2780 CIS” value ([2]; 33 30 μM + cisplatin 1 μM)?
Answer: synergistic effect; also recorded: sensitized A2780 CIS to cisplatin
